# In PMC11191095, “QSAR Reveals Decreased Lipophilicity of Polar Residues Determines the Selectivity of Antimicrobial Peptide Activity” (ACS Omega, 2024):
# Where a SMILES comes first, the peptide text is derived from it.
# How the values were obtained:
# [1] = test system: S. aureus (MSSA) ATCC 9144; assay: microbe, parasite or virus in culture; type: cell-based, Staphylococcus aureus; settings: S. aureus (MSSA) ATCC 9144 (S); shown in µM
# Outline: (§1)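 Peptides 128→2 μg/mL, 2-fold series; inoculum ~5 × 10^5 CFU/mL from overnight culture (OD600 0.01, mixed 1:1). MHB non-cation-adjusted for bacteria, RPMI 1640 + 2% glucose for fungi. 37 °C, 20 h, OD600. MIC50/MIC90 at 50%/90% inhibition; n ≥ 3.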
# S. aureus (MRSA) 1199B = assay: microbe, parasite or virus in culture; type: cell-based, Staphylococcus aureus; settings: S. aureus (MRSA) 1199B (R)
# Outline: as §1
# [2] = test system: S. aureus (MRSA) NCTC 13616; assay: microbe, parasite or virus in culture; type: cell-based, Staphylococcus aureus; settings: S. aureus (MRSA) NCTC 13616 (R)
# Outline: as §1
# S. aureus (MRSA) USA300 = assay: microbe, parasite or virus in culture; type: cell-based, Staphylococcus aureus; settings: S. aureus (MRSA) USA300 (R)
# Outline: as §1
# P. aeruginosa PAO1 = assay: microbe, parasite or virus in culture; type: cell-based, Pseudomonas aeruginosa; settings: P. aeruginosa PAO1 (S); shown in µM
# Outline: as §1
# P. aeruginosa NCTC 13437 = assay: microbe, parasite or virus in culture; type: cell-based, Pseudomonas aeruginosa; settings: P. aeruginosa NCTC 13437 (R)
# Outline: as §1
# A. baumannii AYE = assay: microbe, parasite or virus in culture; type: cell-based, Acinetobacter baumannii; settings: A. baumannii AYE (R); shown in µM
# Outline: as §1
# A. baumannii ATCC 17978 = assay: microbe, parasite or virus in culture; type: cell-based, Acinetobacter baumannii; settings: A. baumannii ATCC 17978 (S); shown in µM
# Outline: as §1
# K. pneumoniae NCTC 13368 = assay: microbe, parasite or virus in culture; type: cell-based, Klebsiella pneumoniae; settings: K. pneumoniae NCTC 13368 (R)
# Outline: as §1
# K. pneumoniae M6 = assay: microbe, parasite or virus in culture; type: cell-based, Klebsiella pneumoniae; settings: K. pneumoniae M6 (S)
# Outline: as §1
# C. krusei NCPF 3876 = assay: microbe, parasite or virus in culture; type: cell-based; settings: C. krusei NCPF 3876
# Outline: as §1
# C. glabrata NCPF 8018 = assay: microbe, parasite or virus in culture; type: cell-based; settings: C. glabrata NCPF 8018
# Outline: as §1
# C. albicans NCPF 3281 = assay: microbe, parasite or virus in culture; type: cell-based; settings: C. albicans NCPF 3281
# Outline: as §1
# C. tropicalis NCPF 8760 = assay: microbe, parasite or virus in culture; type: cell-based; settings: C. tropicalis NCPF 8760; shown in µM
# Outline: as §1
# [3] = test system: C. parapsilosis NCPF 3209; assay: microbe, parasite or virus in culture; type: cell-based; settings: C. parapsilosis NCPF 3209
# Outline: as §1
# C. auris TDG 1912 = assay: microbe, parasite or virus in culture; type: cell-based, Candida auris; settings: C. auris TDG 1912
# Outline: as §1
# E. coli NCTC 12923 = assay: microbe, parasite or virus in culture; type: cell-based, Escherichia coli; settings: E. coli NCTC 12923 (S); shown in µM
# Outline: as §1
# E. coli LEC001 = assay: microbe, parasite or virus in culture; type: cell-based, Escherichia coli; settings: E. coli LEC001 (R); shown in µM
# Outline: as §1
# human erythrocytes = assay: In vitro hemolytic activity; type: cell-based; settings: human erythrocytes in PBS, 1 h, 37 °C, OD550; from dose response curves
# Method: Potential erythrocyte hemolysis was tested by incubating serial dilutions of the AMPs in PBS with freshly collected erythrocytes at a ratio of 1:1 in 96-well polypropylene V-shape plates for 1 h at 37 °C. Control wells were treated with 0.1% Triton-X-100 to ensure complete lysis or PBS-only to represent no lysis. The erythrocytes were collected by centrifugation and the OD550 of the supernatant was measured using a plate reader. The percentage hemolysis was calculated as [drawing 1] 1 where Apeptide is the absorbance value of erythrocytes exposed to a known peptide concentration, Agrowth control is the absorbance of erythrocytes exposed to 0.1% Triton-X-100 and Ablank is the absorbance of erythrocytes exposed to the PBS. The concentrations at which a peptide caused 10% (HC10) and 50% (HC50) hemolysis was determined from the dose response curves.
# [4] = 50% growth inhibition, RPMI 1640 + 2% glucose, 37 °C, 20 h, OD600
# [5] = 90% growth inhibition, RPMI 1640 + 2% glucose, 37 °C, 20 h, OD600
# [6] = MHB, 37 °C, 20 h, OD600, min. three biological repeats
# [7] = 90% growth inhibition, RPMI 1640 + 2% glucose, 37 °C, 20 h
# [8] = 50% growth inhibition, RPMI 1640 + 2% glucose, 37 °C, 20 h
smiles,measurement,setting,value
CC[C@H](C)[C@H](NC(=O)[C@H](Cc1c[nH]c2ccccc12)NC(=O)[C@H](CC(=O)O)NC(=O)[C@H](Cc1c[nH]c2ccccc12)NC(=O)[C@@H](NC(=O)[C@H](CCCCN)NC(=O)CN)C(C)C)C(=O)N[C@@H](CCCCN)C(=O)N[C@@H](CO)C(=O)N[C@H](C(=O)N[C@@H](C)C(=O)N[C@@H](CCCCN)C(=O)N[C@@H](CCCCN)C(=O)N[C@@H](CC(C)C)C(=O)N[C@@H](Cc1c[nH]c2ccccc12)C(=O)N[C@@H](CC(N)=O)C(N)=O)[C@@H](C)O [Opis16a] (H-GKVWDWIKSTAKKLWN-NH2),Modal MIC,[1],1 µM
same,Modal MIC,S. aureus (MRSA) 1199B; shown in µM,2 µM
same,Modal MIC,[2]; shown in µM,2 µM
same,Modal MIC,S. aureus (MRSA) USA300; shown in µM,4 µM
same,Modal MIC,P. aeruginosa PAO1,64.7 µM
same,Modal MIC,P. aeruginosa NCTC 13437; shown in µM,16.2 µM
same,Modal MIC,A. baumannii AYE,1 µM
same,Modal MIC,A. baumannii ATCC 17978,1 µM
same,Modal MIC,K. pneumoniae NCTC 13368; shown in µM,8.1 µM
same,Modal MIC,K. pneumoniae M6; shown in µM,4 µM
same,Modal MIC50,C. krusei NCPF 3876; shown in µM,16.2 µM
same,Modal MIC90,C. krusei NCPF 3876; shown in µM,16.2 µM
same,Modal MIC50,C. glabrata NCPF 8018; shown in µM,64.7 µM
same,Modal MIC90,C. glabrata NCPF 8018; shown in µM,64.7 µM
same,Modal MIC50,C. albicans NCPF 3281; shown in µM,32.4 µM
same,Modal MIC90,C. albicans NCPF 3281; shown in µM,64.7 µM
same,Modal MIC50,C. tropicalis NCPF 8760,4 µM
same,Modal MIC90,C. tropicalis NCPF 8760,4 µM
same,Modal MIC50,[3]; shown in µM,32.4 µM
same,Modal MIC90,[3]; shown in µM,64.7 µM
same,Modal MIC50,C. auris TDG 1912; [4],> 128 µg/mL
same,Modal MIC90,C. auris TDG 1912; [5],> 128 µg/mL
same,Modal MIC50,C. auris TDG 1912; shown in µM,> 64.7 µM
same,Modal MIC90,C. auris TDG 1912; shown in µM,> 64.7 µM
same,Modal MIC,E. coli NCTC 12923,2 µM
same,Modal MIC,E. coli LEC001,2 µM
same,HC10 (concentration causing 10% hemolysis),human erythrocytes,155 µg/mL
same,HC50 (concentration causing 50% hemolysis),human erythrocytes,> 256 µg/mL
CC(C)C[C@H](NC(=O)[C@H](CCCCN)NC(=O)[C@H](CO)NC(=O)[C@H](CCCCN)NC(=O)[C@H](Cc1c[nH]c2ccccc12)NC(=O)[C@H](C)NC(=O)[C@H](CCCCN)NC(=O)[C@H](CCCCN)NC(=O)[C@H](CC(C)C)NC(=O)[C@H](Cc1ccccc1)NC(=O)[C@H](CO)NC(=O)CN)C(=O)N[C@@H](C)C(=O)N[C@@H](CCCCN)C(=O)N[C@@H](CCCCN)C(=O)N[C@@H](CC(C)C)C(=O)N[C@@H](CCCNC(=N)N)C(=O)N[C@@H](C)C(=O)N[C@@H](CCCCN)C(=O)NCC(N)=O [PS-PB-20a] (H-GSFLKKAWKSKLAKKLRAKG-NH2),Modal MIC,[1],3.5 µM
same,Modal MIC,S. aureus (MRSA) 1199B; [6],> 128 µg/mL
same,Modal MIC,S. aureus (MRSA) 1199B; shown in µM,> 55.7 µM
same,Modal MIC,[2]; [6],> 128 µg/mL
same,Modal MIC,[2]; shown in µM,> 55.7 µM
same,Modal MIC,S. aureus (MRSA) USA300; [6],> 128 µg/mL
same,Modal MIC,S. aureus (MRSA) USA300; shown in µM,> 55.7 µM
same,Modal MIC,P. aeruginosa PAO1,55.7 µM
same,Modal MIC,P. aeruginosa NCTC 13437; [6],> 128 µg/mL
same,Modal MIC,P. aeruginosa NCTC 13437; shown in µM,> 55.7 µM
same,Modal MIC,A. baumannii AYE,13.9 µM
same,Modal MIC,A. baumannii ATCC 17978,3.5 µM
same,Modal MIC,K. pneumoniae NCTC 13368; [6],> 128 µg/mL
same,Modal MIC,K. pneumoniae NCTC 13368; shown in µM,> 55.7 µM
same,Modal MIC,K. pneumoniae M6; [6],> 128 µg/mL
same,Modal MIC,K. pneumoniae M6; shown in µM,> 55.7 µM
same,Modal MIC90,C. krusei NCPF 3876; [7],> 128 µg/mL
same,Modal MIC50,C. krusei NCPF 3876; shown in µM,55.7 µM
same,Modal MIC90,C. krusei NCPF 3876; shown in µM,> 55.7 µM
same,Modal MIC50,C. glabrata NCPF 8018; [8],> 128 µg/mL
same,Modal MIC90,C. glabrata NCPF 8018; [7],> 128 µg/mL
same,Modal MIC50,C. glabrata NCPF 8018; shown in µM,> 55.7 µM
same,Modal MIC90,C. glabrata NCPF 8018; shown in µM,> 55.7 µM
same,Modal MIC50,C. albicans NCPF 3281; [8],> 128 µg/mL
same,Modal MIC90,C. albicans NCPF 3281; [7],> 128 µg/mL
same,Modal MIC50,C. albicans NCPF 3281; shown in µM,> 55.7 µM
same,Modal MIC90,C. albicans NCPF 3281; shown in µM,> 55.7 µM
same,Modal MIC50,C. tropicalis NCPF 8760,27.8 µM
same,Modal MIC90,C. tropicalis NCPF 8760,27.8 µM
same,Modal MIC50,[3]; [8],> 128 µg/mL
same,Modal MIC90,[3]; [7],> 128 µg/mL
same,Modal MIC50,[3]; shown in µM,> 55.7 µM
same,Modal MIC90,[3]; shown in µM,> 55.7 µM
same,Modal MIC50,C. auris TDG 1912; [4],> 128 µg/mL
same,Modal MIC90,C. auris TDG 1912; [5],> 128 µg/mL
same,Modal MIC50,C. auris TDG 1912; shown in µM,> 55.7 µM
same,Modal MIC90,C. auris TDG 1912; shown in µM,> 55.7 µM
same,Modal MIC,E. coli NCTC 12923,13.9 µM
same,Modal MIC,E. coli LEC001,27.8 µM
